The numbers were not newly measured in patent US20210401968A1 (priority 2018, published 2021), which cites them from elsewhere.

Like-named read-outs stand apart in the source and are kept apart here.

The target of data set [1] is T1, progesterone receptor-based transactivator (Homo sapiens, UniProt P06401).
T1 construct: host or cells: rats (host animal of the cited study)
Conditions: rats.

T1 sequence (P06401 640-891, added parts left off): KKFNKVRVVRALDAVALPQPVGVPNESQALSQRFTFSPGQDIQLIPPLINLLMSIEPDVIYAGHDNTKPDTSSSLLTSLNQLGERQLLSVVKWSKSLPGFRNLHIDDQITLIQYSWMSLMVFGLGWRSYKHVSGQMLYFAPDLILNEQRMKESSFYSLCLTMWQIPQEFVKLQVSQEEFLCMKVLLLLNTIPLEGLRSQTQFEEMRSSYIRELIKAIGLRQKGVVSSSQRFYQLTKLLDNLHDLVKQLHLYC

For `CC#C[C@]1(O)CC[C@H]2[C@@H]3CCC4=CC(=O)CCC4=C3[C@@H](c3ccc(N(C)C)cc3)C[C@@]21C` [mifepristone], in the data set on luciferase target gene, the “duration of sustained target gene expression after a single heat treatment” value is listed as “at least 6 days” and the “target gene expression after heat treatment” value is “resulted in activation of target gene expression”. In addition, in data set [1] (i.p.), the “amount giving an effective concentration” value was 5 µg/kg. The “amount giving an effective concentration” value in data set [1] (orally) is listed as “about 10 μg/kg”.
